{"source": "paper PMC6538733", "about": "“Chemical Constituents from Mentha haplocalyx Briq. (Mentha canadensis L.) and Their α-Glucosidase Inhibitory Activities” (Natural Products and Bioprospecting, 2019)", "target": "α-glucosidase", "assay": "pNPG hydrolysis assay, absorbance at […] nm", "assay_type": "biochemical", "data": [{"smiles": "C=C(C)[C@@H]1CC=C(C)[C@H](O[C@@H]2O[C@H](CO)[C@@H](O)[C@H](O)[C@H]2O)C1", "note": "[compound 3, (4R,6R)-carveol β-D-glucoside]", "values": [{"measurement": "IC50", "result": 516, "unit": "µM"}]}, {"smiles": "C=C(C)[C@@H]1CC=C(C)[C@@H](O[C@@H]2O[C@H](CO)[C@@H](O)[C@H](O)[C@H]2O)C1", "note": "[compound 4, (4R,6S)-carveol β-D-glucoside]", "values": [{"measurement": "IC50", "result": 919, "unit": "µM"}]}, {"smiles": "CC1=C(CC[C@H](C)O)C(C)(C)C[C@H](O[C@@H]2O[C@H](CO)[C@@H](O)[C@H](O)[C@H]2O)C1", "note": "[compound 11, (3R,9S)-megastigman-5-en-3,9-diol 3-O-β-D-glucopyranoside]", "values": [{"measurement": "IC50", "result": 83.4, "unit": "µM"}]}]}
